# From US20080113907A1, “Uses Of Galectin-2” (Charite-Universitat-Smedizin Berlin, priority 2004, published 2008)
# B1: CD7 (receptor, human, UniProt P09564 26-240, looked up)
# chain: AQEVQQSPHCTTVPVGASVNITCSTSGGLRGIYLRQLGPQPQDIIYYEDGVVPTTDRRFRGRIDFSGSQDNLTITMHRLQLSDTGTYTCQAITEVNVYGSGTLVLVTEEQSQGWHRCSDAPPRASALPAPPTGSALPDPQTASALPDPPAASALPAALAVISFLLGLGLGVACVLARTQIKKLCSWRDKNSAACVVYEDMSHSRCNTLSSPNQYQ
# notes: whole, on cells
# Assays:
# [1] = system: dextran sodium sulfate induced colitis; assay: Prevention of DSS induced acute colitis, disease activity index (DAI); format: in vivo, Balb/c mice; details: 2 mg/kg i.p.; 10 days after induction; control 6.5 ± 0.3
# Method: Colitis was induced in 8- to 10-week-old, female, Balb/c mice (Jackson Laboratories, Bar Harbor, Me.) by adding 5% DSS (Sigma Chemical Co., St. Louis, Mo.) (Dextran Sodiumsulfate (DSS) to their drinking water and allowing them to drink ad libitum. Groups of mice were treated either with 1 mg/kg BW (body weight) galectin-2 intraperitoneally or PBS 2 h before DSS administration. Mice were weighed and inspected for diarrhea and rectal bleeding. Seven days after induction of colitis by DSS, mice were killed, their entire colon was resected, and its length was measured and weighed. The disease activity index (DAI; i.e., the combined score of weight loss and bleeding) was determined according to a standard scoring system.
# The disease activity index: Loss in bodyweight: 0=no loss; 1=5% to 10%; 2=10% to 15%; 3=15% to 20%; 4 ? 20%.
# Hemoccult: 0=no blood; 2=positive; 4=gross blood.
# In this experiment the DAI ranges from 0 to 8. The higher the DAI score the more severely the animal had been affected by colitis.
# Colitis was induced in 8- to 10-week-old, female, Balb/c mice (Jackson Laboratories, Bar Harbor, Me.) by adding 5% DSS (Sigma Chemical Co., St. Louis, Mo.) (Dextran Sodiumsulfate (DSS) to their drinking water and allowing them to drink ad libitum. Groups of respectively 10 mice were treated either with Galectin-2 subcutaneously (s.c.) or intraperitoneally (i.p.) 2 h before DSS administration. In one trial with 10 mice the doses of Galectin-2 was doubled (administered i.p.) and compared to the treatment of 10 mice with Tacrolimus (FK506) (administered i.p.) in equal concentrations. In parallel a group of 10 mice was treated with 0.9% NaCl instead of Galectin-2 as control. Mice were weighed and inspected for diarrhea and rectal bleeding. 10 days after induction of colitis by DSS, mice were killed, their entire colon was resected, and its length was measured and weighed. The disease activity index (DAI; i.e., the combined score of weight loss and bleeding) was determined according to a standard scoring system.
# The disease activity index: Loss in body weight: 0=no loss; 1=5% to 10%; 2=10% to 15%; 3=15% to 20%; 4 ? 20%.
# [2] = system: PBT; assay: Extent of apoptosis and necrosis (annexin-V, PI, DAPI staining); format: cell-based, human
# Method: Apoptosis was determined by monitoring fragmentation of nuclear DNA and access of annexin V to c ell surface phosphatidylserine (PS). To detect fragmentation of nuclear DNA, T cells were cultured in the presence and absence of the respective galectins, with or without blocking antibodies or further activation for 48 h. Thereafter, cells were fixed in 0.2 ml of 37% formaldehyde for 10 min at room temperature. The cells were then treated with 1 ml PBS containing 0.2% Nonidet P-40 (Sigma-Aldrich) for 2 min at room temperature and then rinsed once in PBS. The apoptotic cells were detected by staining of nuclear DNA with 4,6-diamino-2-phenylindole (DAPI) (Calbiochem). DAPI was added at a concentration of 0.2 ng/ml of PBS and cells were incubated at room temperature for 20 min in this solution. Cells were rinsed twice in PBS and the coverslips were maintained cell side down on a microscope slide and analyzed using a Zeiss Axiovert 135M microscope (Carl Zeiss, Oberkochen, Germany). To detect early phases of apoptosis, access to PS was measured. Cells were cultured as described, harvested at the respective time points, stained with FITC-labeled annexin-V and PI and analyzed by flow cytometry using the CellQuest software program (BD Pharmingen). A minimum of 15,000 cells was monitored in each case.
# [3] = system: T cells (PBT, LPT); assay: Adhesion assay to collagen type I and fibronectin; format: cell-based, human
# Method: 96 well flat-bottom plates were precoated overnight at 4° C. with 12 μg/well fibronectin (Chemicon) in DPBS, 40 μg/well collagen type I (Sigma-Aldrich) in 0.1 M acetic acid, or 3% BSA (Sigma-Aldrich) in DPBS as a control and then washed three times with DPBS. Freshly isolated T cells were fluorescently-labelled with 5 μM calcein-AM (Molecular Probes, Eugene, Oreg.) for 30 min at 37° C. in 5% CO2 at 5×10^6 cells/ml in RPMI. The cells were then washed three times with RPMI containing 5% FCS. Calcein-labelled T cells were resuspended in RPMI and 5×10^5 T cells/well were added to 96-well plates containing purified ECM components or BSA for the indicated times. Saturating concentrations of integrin-blocking mAbs (predetermined by flow cytometry) were preincubated with T cells for 30 min at 37° C. before adding T cells to the wells for the adhesion assay. Nonadherent cells were removed by a standardized washing technique that was developed to minimize background binding, which includes both an orbital and a rocking motion repeated three times with RPMI. Adhesion was quantified with a multiwell fluorescent spectrophotometer (Tecan, Groedig, Austria). For each experimental group the results were expressed as the mean percentage±SD of bound T cells from triplicate wells.
# [4] = system: CD3, CD7, β1 integrin; assay: Magnetic separation / co-immunoprecipitation of galectin containing complexes; format: binding, human; details: galectin coated beads, immunoblot for CD3, CD7, β1
# Method: For immunoblotting cells were washed in PBS, and lysed in cell lysis buffer (1% Triton-X, 0.5% NP-40, 0.1% SDS, 0.5% sodium deoxycholate, 5 mM EDTA, 50 mM and 50 mM protease- and phosphatase-inhibitor cocktail 2, 1 mM PMSF, 100 μg/ml trypsin-chymotrypsin inhibitor, 100 μg/ml chymostatin in PBS). The concentration of proteins in each lysate was measured using the Bio-Rad protein assay (Bio-Rad Laboratories, Hercules, Calif.). Equivalent amounts of protein (10 μg) were fractionated on a 10-20% Tris-glycine gel and electrotransferred to a nitrocellulose membrane (Novex, San Diego, Calif.). Membranes were blocked with 5% milk in 0.1% Tween 20-PBS (Fisher Scientific, Hanover Park, Ill.), followed by incubation for 60 m in at room temperature with the indicated primary antibody. The membranes were washed six times with 0.1% Tween 20-PBS and then incubated for 1 h with the appropriate horseradish peroxidase-conjugated secondary antibody (Santa Cruz Biotechnology), washed, and incubated with the chemiluminescent substrate (Perkin-Elmer, Carlsbad, Calif.) for 5 minutes. The membranes were then exposed to film (Amersham, Arlington Heights, Ill.). […]
# [5] = system: PBT; assay: Analysis of T cell cycling (DNA content, cyclin B1, cell cycle regulators); format: cell-based, human; details: anti-CD3 activated PBT; dropped from 8% (galectin-1) and 7% (galectin-7)
# Method: For immunoblotting cells were washed in PBS, and lysed in cell lysis buffer (1% Triton-X, 0.5% NP-40, 0.1% SDS, 0.5% sodium deoxycholate, 5 mM EDTA, 50 mM and 50 mM protease- and phosphatase-inhibitor cocktail 2, 1 mM PMSF, 100 μg/ml trypsin-chymotrypsin inhibitor, 100 μg/ml chymostatin in PBS). The concentration of proteins in each lysate was measured using the Bio-Rad protein assay (Bio-Rad Laboratories, Hercules, Calif.). Equivalent amounts of protein (10 μg) were fractionated on a 10-20% Tris-glycine gel and electrotransferred to a nitrocellulose membrane (Novex, San Diego, Calif.). Membranes were blocked with 5% milk in 0.1% Tween 20-PBS (Fisher Scientific, Hanover Park, Ill.), followed by incubation for 60 m in at room temperature with the indicated primary antibody. The membranes were washed six times with 0.1% Tween 20-PBS and then incubated for 1 h with the appropriate horseradish peroxidase-conjugated secondary antibody (Santa Cruz Biotechnology), washed, and incubated with the chemiluminescent substrate (Perkin-Elmer, Carlsbad, Calif.) for 5 minutes. The membranes were then exposed to film (Amersham, Arlington Heights, Ill.).
# Flow cytometry was performed after staining for DNA content, and cyclin B1, essentially as previously described (21). Briefly, cells were washed twice with PBS, adjusted to 1×10^6 cells/sample and fixed in 90% Methanol at −20° C. After fixation, cells were washed twice with PBS, incubated for 45 min at 4° C. with a cyclin B1-FITC conjugated monoclonal antibody. After the final wash, cells were resupended in PBS and 5 μl of RNase (0.6 μg/ml, 30-60 Kunitz Units, Sigma), incubated at 37° C. for 15 min and the chilled on ice. One hundred and twenty five microliters of PI (200 μg/ml) were added prior to analysis by flow cytometry. Each analysis was performed on at least 25.000 events.
# [6] = system: T cells (PBT, LPT); assay: Integrin accessibility on T cell surface (flow cytometry); format: cell-based, human; details: CD3 activated PBT
# Method: For surface staining, cells were washed twice in ice-cold PBS and 1×10^6 cells were resuspended in flow buffer (HBSS containing 1% BSA and 0.1% sodium azide). Cells were incubated with the respective mAb at predetermined saturating concentrations or with isotype-matched nonspecific mouse mAb (DAKO) for 30 min at 4° C., washed twice with flow buffer, and incubated with FITC-conjugated goat anti-mouse IgG for 30 min at 4° C. The cells were again washed twice with flow buffer, fixed in 1% paraformaldehyde and analyzed by a single laser flow cytometer (FacsCalibur, […]), using Cell Quest software (BD Pharmingen). Cells stained with a negative control Ab were gated to contain <2% positive cells. To perform analysis of intracellular proteins, cells were washed twice with PBS, adjusted to 1×10^6 cells per sample, and fixed in 90% methanol at −20° C. After fixation, cells were washed twice with PBS and incubated with a monoclonal mouse anti-bax, Bcl-2, Rb, Cyclin A, p21, p27, or p53 antibody for 45 minutes at 4° C., followed by an incubation with a goat anti-mouse FITC-conjugated mAb (Biosource) for 45 minutes at 4° C. Thereafter cells were washed and analyzed by flow cytometry as described above. The background level of immunofluorescence was determined by incubating cells with FITC-conjugated mouse IgG (isotype control).
# [7] = molecular target: B1; assay: pull-down from T cells with Gal-2-coated magnetic beads, Western blot; agrees with antibody blocking in flow cytometry
# Method: A) Cells were preincubated with CD3, CD7, and β1 mAb (1:100 dilution) for 1 h at RT and then cultured for additional 24 h in the presence of 5 μg/ml galectin-2 coupled to biotin. Cells were then harvested and binding of galectin-2 to T cells determined by two-color flow cytometry using streptavidin labelled-APC to detect biotinylated sites. B) Galectin-1 coimmunoprecipitates with CD3, CD7 and β1 integrin, whereas galectin-2 coimmunoprecipitate only with integrin β1. Cells were incubated with galectin-1 or -2 coated tosyl-activated beads and subsequently lysed. Bead-bound cell fragments were separated magnetically and immunoblotted for CD3, CD7 or β1. Both graphs are representative for four different experiments yielding similar results.
# For separation of galectin-2-associated complexes, 1×10⁸ tosylactivated, supermagnetic, polysterene coated beads (Dynalbeads, Dynal Biotech, Oslo, Norway) were coated either with 350 μg BSA, Galectin-1, Galectin-2, CD7, integrin-β1 or OKT3 overnight at 37° C. using tilt rotation. After incubation, the beads were washed in 0.2 M Tris (pH 8.5 containing 0.1% BSA), and then incubated with 2×10⁶ PBT for 1 h at 37° C. […]
# [8] = molecular target: T1, BSA (UniProt P02769 25-607, coupled to tosylactivated magnetic beads); assay: pull-down from T cells with BSA-coated magnetic beads, Western blot
# T1 construct: Negative control for the bead pull-down; also called BSA control
# T1 sequence (P02769 25-607 limits assumed): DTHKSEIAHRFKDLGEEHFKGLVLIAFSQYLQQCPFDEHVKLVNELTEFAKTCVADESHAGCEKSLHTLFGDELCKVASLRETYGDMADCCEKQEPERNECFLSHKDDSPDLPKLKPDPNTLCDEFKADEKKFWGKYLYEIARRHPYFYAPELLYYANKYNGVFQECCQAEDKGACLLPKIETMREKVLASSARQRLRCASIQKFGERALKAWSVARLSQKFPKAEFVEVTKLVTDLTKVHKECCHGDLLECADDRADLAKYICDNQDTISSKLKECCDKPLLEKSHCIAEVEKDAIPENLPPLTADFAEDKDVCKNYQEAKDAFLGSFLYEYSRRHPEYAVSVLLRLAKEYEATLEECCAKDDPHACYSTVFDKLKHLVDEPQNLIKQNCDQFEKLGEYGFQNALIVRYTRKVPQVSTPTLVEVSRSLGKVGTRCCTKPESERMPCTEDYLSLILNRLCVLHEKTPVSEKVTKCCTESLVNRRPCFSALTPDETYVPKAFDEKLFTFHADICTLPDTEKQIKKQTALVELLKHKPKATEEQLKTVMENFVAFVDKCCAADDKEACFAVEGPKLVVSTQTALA
molecule,measurement,setting,value
"C=CC[C@@H]1/C=C(\C)C[C@H](C)C[C@H](OC)[C@H]2O[C@@](O)(C(=O)C(=O)N3CCCC[C@H]3C(=O)O[C@H](/C(C)=C/[C@@H]3CC[C@@H](O)[C@H](OC)C3)[C@H](C)[C@@H](O)CC1=O)[C@H](C)C[C@@H]2OC [Tacrolimus, reference compound]",DAI (disease activity index),[1],"2.4 ± 0.5,"
same,apoptosis and necrosis of stimulated and unstimulated T cells,"[2]; 0, 50, 100 μg/ml, 24 h, with or without anti-CD3",makes no distinction between stimulated and unstimulated T-cells and mainly induces necrosis
galectin-1: prototype β-galactoside binding lectin used for comparison,cells adhering to collagen type I,"[3]; CD3 activated PBT, without galectin 22.1±3.5%",9.2±3.5%
same,cells adhering to fibronectin,"[3]; CD3 activated PBT, without galectin 26.3±5.6%",14.0±4.6%
same,glycoproteins co-immunoprecipitated,[4],"coimmunoprecipitates with CD3, CD7 and β1 integrin"
same,cyclin B1 expression,[5],1%
same,β4 integrin accessibility,[6],neither galectin-1 nor galectin-2 changed
same,integrin α5 accessibility,[6]; 50 μg/ml,downregulated
same,integrin β1 accessibility,[6]; 50 μg/ml,downregulated
same,integrin a5 accessibility,[6]; second statement,slightly upregulated
galectin-7: another homodimeric proto-type galectin used for comparison,effect on PBT adhesion to collagen or fibronectin,[3]; PBT,failed to significantly alter PBT adhesion to collagen or fibronectin
same,cyclin B1 expression,[5],1%
same,PBT apoptosis relative to galectin-2,[2]; stimulated T cells,induced PBT apoptosis comparable to galectin-2
"Galectin-2 (ligand, UniProt P05162 1-132, looked up, biotinylated (sites not given) in the flow cytometry binding assays; coupled to tosylactivated magnetic beads in the pull-down, The NcoI site gave a Thr(Ser)2Ala substitution: Thr in human, Ser in rat; also called Gal-2; biotinylated Gal-2) MAGELEVKNMDMKPGSTLKITGSIADGTDGFVINLGQGTDKLNLHFNPRFSESTIVCNSLDGSNWGQEQREDHLCFSPGSEVKFTVTFESDKFKVKLPDGHELTFPNRLGHSHLSYLSVRGGFNMSSFKLKE",binding result,[7],no binding
B1,binding result,[8],no binding
